Results from patent publication US20200255492A1, “LEPTIN PEPTIDES AND THEIR USE FOR TREATING NEUROLOGICAL DISORDERS” (UNIVERSITY OF DUNDEE, priority 2017, published 2020).

Columns and labels:
[1] = tested on: differentiated SH-SY5Y human neuronal cells; experiment: MTT assay of mitochondrial activity (cell viability); format: cell-based; conditions: 10 nM; n=11
Protocol: The human neuroblastoma cell line, SH-SY5Y (ECACC, UK) was maintained in Dulbecco's Modified Eagle Medium supplemented with glucose ([…]) and 10% (v/v) cosmic calf serum (Fisher Scientific, UK) at 37° C. in a humidified atmosphere of 5% CO2, 95% air and allowed to reach 70-80% confluence before seeding. Cells (passage 10-18) were plated at 10 000 cells per well in 96 well tissue culture plates (Nunc, VWR, UK) and at a density of 2×10^5 cells in 35 mm dishes for protein extraction. To induce differentiation, cells were cultured in DMEM supplemented with glucose ([…]), 1% (v/v) cosmic calf serum and 10 μM retinoic acid for 5 days. Thereafter they were incubated in DMEM supplemented with glucose ([…]), serum replacement 2 (2%; Sigma, UK) and 18 μM 5-fluorodeoxyuridine to inhibit proliferation of undifferentiated cells. The 50% of the medium was changed every 2-3 days and pharmacological treatment was carried out 7 days after switching to this medium. Reagents used were (from Sigma UK unless stated) 0.1-10 nM human leptin and leptin (116-130); 0.1-10 nM leptin (22-56; Bachem; Switzerland); 10 nM leptin (116-121) leptin (117-122), leptin (124-129) or leptin (125-130; all Severn Biotech, UK); 5 μM copper chloride; […], 5 μM WP1066 or 50 nM wortmannin. All treatments were added to the culture at the same time and survival assays were carried out after 96 h treatment. Protein samples for signaling ELISA were extracted 3 h after exposure to the relevant reagents and for biomarker expression after 72 hours.
The concentration of lactate dehydrogenase (LDH) in the culture medium or the mitochondrial activity within cells was used to monitor the level of cell death, as previously (Oldreive and Doherty 2010). In certain experiments, a Crystal violet assay was used to assess total cell number. Cells were fixed in neutral buffered formalin and washed 3 times in PBS prior to staining with 0.01% crystal violet acetate for 5 min. Plates were washed 5-10 times in dH2O and cells solubilised in 100 μl dimethyl sulfoxide (DMSO) before reading the absorbance on a Biohit BP100 plate reader. For all assays, data is expressed as percentage relative to control, untreated wells to normalize for differences in plating density between individual experiments.
To confirm the findings of the LDH assay, cells were treated with Aβ1-42 alone or with a 10 nM of leptin, leptin (116-130) or the listed hexamers, and mitochondrial activity, as a measure of cell viability, determined by MTT assay. A significant increase in mitochondrial activity was detected following treatment with either leptin or leptin (116-130; both 10 nM). […] Thus for Aβ1-42-treated cells, 10 nM leptin and 10 nM leptin (116-130) increased mitochondrial activity by 32.6±5.2% and 40.9+5.8% respectively compared with Aβ1-42 alone (n=11; P<0.001; FIG. 11B); an effect that was mirrored by 10 nM leptin (116-121) and leptin (117-122); 43.61±3.9% and 40.5±3.7*% (n=11; P<0.001; FIG. 11B), but not by 10 nM leptin (124-129) or leptin (125-130) (n=11; P>0.5; FIG. 11B). This reinforces the findings from the LDH assay that similar to either leptin or leptin (116-130), treatment with leptin (116-121) or leptin (117-122) reduces neuronal death in response to AD-linked toxins in vitro.

[2] = tested on: SH-SY5Y neuronal cultures; experiment: Thioflavin S staining of amyloid after seeding with Aβ1-42; format: cell-based, human; conditions: 96 hours after seeding with 1 μM Aβ1-42; leptin116-130 1 nM
Protocol: The human neuroblastoma cell line, SH-SY5Y (ECACC, UK) was maintained in Dulbecco's Modified Eagle Medium supplemented with glucose ([…]) and 10% (v/v) cosmic calf serum (Fisher Scientific, UK) at 37° C. in a humidified atmosphere of 5% CO2, 95% air and allowed to reach 70-80% confluence before seeding. Cells (passage 10-18) were plated at 2×10^5 cells on 13 mm borosilicate class coverslips or at 10 000 cells per well in 96 well tissue culture plates (Nunc, VWR, UK) prior to treatment. Reagents used were (from Sigma UK unless stated) 1 nM human leptin, leptin (116-121), leptin (117-122) and leptin (117-125); 0.0001-1 nm murine leptin fragments leptin (116-121), leptin (117-122) and leptin (116-130); 100 μM 6-hydroxydopamine; 10 μM CuCl2; […]
After 96 hours, cultures were fixed for 15 minutes in neutral buffered formalin, washed in phosphate buffered saline and stained with 0.05% Thioflavin S for 10 minutes prior to washing in phosphate buffered saline and mounting for visualisation on a fluorescent microscope. Relative fluorescent intensity per cell was determined using post hoc image analysis with Fiji software. Quantitative data is presented as the mean fluorescence per cell relative to control untreated cells.

Row | Substance | increase in mitochondrial activity compared with Aβ1-42 alone [1] | thioflavin S fluorescent signal per cell (amyloid accumulation) [2]
1 | CSLPQT (listed as Mus musculus) [leptin (117-122)] | 40.5±3.7% | prevent the accumulation of amyloid beta
2 | SCSLPQ (listed as Mus musculus) [leptin (116-121)] | 43.61±3.9% | prevent the accumulation of amyloid beta
3 | SCSLPQTSGLQKPES (listed as Mus musculus) [leptin (116-130)] | 40.9 ± 5.8% | amyloid propagation following seeding is greatly reduced
4 | leptin: the metabolic hormone leptin, whole (full length) leptin molecule; human leptin from Sigma in SH-SY5Y work | 32.6±5.2% | –
